We go through 25 compounds from US20220226299A1 (NIPPON CHEMIPHAR CO., LTD., priority 2019, published 2022).

The target of this assay is T1, human Cav3.2 channels (Homo sapiens, UniProt O95180).
T1 construct: human Cav3.2 channel ORF (Open Reading Frame) gene; expressed in transfected cells; host or cells: HEK293 cells (ATCC No. CRL-1573), pcDNA3.1(+) plasmid
The assay is described as follows: T-type calcium blocking action: intracellular calcium (Fluo-4 AM fluorescence) in HEK293 cells steadily expressing human Cav3.2 channels. The assay is classed as cell-based. The following applies: HEK293 cells expressing human Cav3.2; KCl-stimulated calcium influx, Fluo-4 fluorescence; Tables 1 to 3. An excerpt:
T-Type Calcium Blocking Action
(1) Construction of Cells Steadily Expressing Human Cav3.2 Channels
A sequence obtained by adding HindIII site and a kozak sequence (GCCACC) to the 5′-side of human Cav3.2 channel ORF (Open Reading Frame) gene and adding a KpnI site to the 3′-side of the gene, was incorporated into pcDNA3.1(+) (Thermo Fisher Scientific, #V790-20), and the plasmid was introduced into HEK293 cells (ATCC No. CRL-1573) according to the protocol of FuGENE (registered trademark) HD Transfection Reagent (Promega, #E2311).
(2) Method for Measuring Intracellular Calcium Concentration
The cells steadily expressing human Cav3.2 channels produced by testing method (1) were seeded on a 96-well plate (Dulbecco's modified Eagle medium (DMEM) medium containing 10% fetal bovine serum (FBS) was used as a medium). The cells were seeded and cultured for 48 hours under conditions of 37° C. and 5% CO2. Thereafter, the cells were washed with buffer A in order to remove the medium. Each well was treated with 80 μL of a fluorescent dye solution produced by mixing 22 μg of a fluorescent calcium indicator, Fluo-4 AM (Dojindo Laboratories, #F311), 20 μL of DMSO, 1 μL of 10% Pluronic F-127 (Thermo Fisher Scientific, #P6866), and 4 mL of buffer A. The cells were allowed to stand for 45 minutes at room temperature under light-shielded conditions, and then washed with buffer B in order to completely replace the solution. 70 μL of DMSO having the same concentration as that of a test compound as a negative control and 70 μL of a mixture containing 1 μM of a known blocker RQ-00311651 and the test compound as a positive control were each added to each well in a form of being contained in the buffer B. The test compound was dissolved in 100% DMSO and added at a final concentration of 0.1%. Then, the cells were further allowed to stand at room temperature under light-shielded conditions for 15 minutes and placed in a microplate reader EnVision (PerkinElmer). Background fluorescence was measured in each well, and then a 5 μg/mL grammicidin solution was added to buffer B at 10 μL/well. After 90 seconds, baseline fluorescence was measured. Thereafter, 83.8 mM KCl was added to buffer B at 20 μL/well, and an increase in fluorescence caused by calcium influx generated by the stimulus was measured for 10 seconds. A blocking percentage was calculated from a maximum fluorescence increase value from a baseline, a logarithmic value of a compound concentration and blockery activity were plotted, and thereby an IC50 value was calculated. In the measurement, fluorescence at 510 nm that was emitted when the cells were irradiated with excitation light at 485 nm was observed.
Buffer A: 140 mM NaCl, 5 mM KCl, 1 mM MgCl2, 0.5 mM CaCl2, 10 mM Glucose, 10 mM HEPES, pH 7.3
Buffer B: 137.9 mM Choline-Cl, 4.1 mM KCl, 1 mM MgCl2, 0.5 mM CaCl2, 10 mM Glucose, 10 mM HEPES, pH 7.3

SMILES strings stand for the structures. pIC50: −log10 of the molar value. Counter-ions that a name gives are not always drawn.

One may read the pIC50 as −log10 of the IC50, conventionally taken in molar units.

T1 sequence (O95180 whole entry): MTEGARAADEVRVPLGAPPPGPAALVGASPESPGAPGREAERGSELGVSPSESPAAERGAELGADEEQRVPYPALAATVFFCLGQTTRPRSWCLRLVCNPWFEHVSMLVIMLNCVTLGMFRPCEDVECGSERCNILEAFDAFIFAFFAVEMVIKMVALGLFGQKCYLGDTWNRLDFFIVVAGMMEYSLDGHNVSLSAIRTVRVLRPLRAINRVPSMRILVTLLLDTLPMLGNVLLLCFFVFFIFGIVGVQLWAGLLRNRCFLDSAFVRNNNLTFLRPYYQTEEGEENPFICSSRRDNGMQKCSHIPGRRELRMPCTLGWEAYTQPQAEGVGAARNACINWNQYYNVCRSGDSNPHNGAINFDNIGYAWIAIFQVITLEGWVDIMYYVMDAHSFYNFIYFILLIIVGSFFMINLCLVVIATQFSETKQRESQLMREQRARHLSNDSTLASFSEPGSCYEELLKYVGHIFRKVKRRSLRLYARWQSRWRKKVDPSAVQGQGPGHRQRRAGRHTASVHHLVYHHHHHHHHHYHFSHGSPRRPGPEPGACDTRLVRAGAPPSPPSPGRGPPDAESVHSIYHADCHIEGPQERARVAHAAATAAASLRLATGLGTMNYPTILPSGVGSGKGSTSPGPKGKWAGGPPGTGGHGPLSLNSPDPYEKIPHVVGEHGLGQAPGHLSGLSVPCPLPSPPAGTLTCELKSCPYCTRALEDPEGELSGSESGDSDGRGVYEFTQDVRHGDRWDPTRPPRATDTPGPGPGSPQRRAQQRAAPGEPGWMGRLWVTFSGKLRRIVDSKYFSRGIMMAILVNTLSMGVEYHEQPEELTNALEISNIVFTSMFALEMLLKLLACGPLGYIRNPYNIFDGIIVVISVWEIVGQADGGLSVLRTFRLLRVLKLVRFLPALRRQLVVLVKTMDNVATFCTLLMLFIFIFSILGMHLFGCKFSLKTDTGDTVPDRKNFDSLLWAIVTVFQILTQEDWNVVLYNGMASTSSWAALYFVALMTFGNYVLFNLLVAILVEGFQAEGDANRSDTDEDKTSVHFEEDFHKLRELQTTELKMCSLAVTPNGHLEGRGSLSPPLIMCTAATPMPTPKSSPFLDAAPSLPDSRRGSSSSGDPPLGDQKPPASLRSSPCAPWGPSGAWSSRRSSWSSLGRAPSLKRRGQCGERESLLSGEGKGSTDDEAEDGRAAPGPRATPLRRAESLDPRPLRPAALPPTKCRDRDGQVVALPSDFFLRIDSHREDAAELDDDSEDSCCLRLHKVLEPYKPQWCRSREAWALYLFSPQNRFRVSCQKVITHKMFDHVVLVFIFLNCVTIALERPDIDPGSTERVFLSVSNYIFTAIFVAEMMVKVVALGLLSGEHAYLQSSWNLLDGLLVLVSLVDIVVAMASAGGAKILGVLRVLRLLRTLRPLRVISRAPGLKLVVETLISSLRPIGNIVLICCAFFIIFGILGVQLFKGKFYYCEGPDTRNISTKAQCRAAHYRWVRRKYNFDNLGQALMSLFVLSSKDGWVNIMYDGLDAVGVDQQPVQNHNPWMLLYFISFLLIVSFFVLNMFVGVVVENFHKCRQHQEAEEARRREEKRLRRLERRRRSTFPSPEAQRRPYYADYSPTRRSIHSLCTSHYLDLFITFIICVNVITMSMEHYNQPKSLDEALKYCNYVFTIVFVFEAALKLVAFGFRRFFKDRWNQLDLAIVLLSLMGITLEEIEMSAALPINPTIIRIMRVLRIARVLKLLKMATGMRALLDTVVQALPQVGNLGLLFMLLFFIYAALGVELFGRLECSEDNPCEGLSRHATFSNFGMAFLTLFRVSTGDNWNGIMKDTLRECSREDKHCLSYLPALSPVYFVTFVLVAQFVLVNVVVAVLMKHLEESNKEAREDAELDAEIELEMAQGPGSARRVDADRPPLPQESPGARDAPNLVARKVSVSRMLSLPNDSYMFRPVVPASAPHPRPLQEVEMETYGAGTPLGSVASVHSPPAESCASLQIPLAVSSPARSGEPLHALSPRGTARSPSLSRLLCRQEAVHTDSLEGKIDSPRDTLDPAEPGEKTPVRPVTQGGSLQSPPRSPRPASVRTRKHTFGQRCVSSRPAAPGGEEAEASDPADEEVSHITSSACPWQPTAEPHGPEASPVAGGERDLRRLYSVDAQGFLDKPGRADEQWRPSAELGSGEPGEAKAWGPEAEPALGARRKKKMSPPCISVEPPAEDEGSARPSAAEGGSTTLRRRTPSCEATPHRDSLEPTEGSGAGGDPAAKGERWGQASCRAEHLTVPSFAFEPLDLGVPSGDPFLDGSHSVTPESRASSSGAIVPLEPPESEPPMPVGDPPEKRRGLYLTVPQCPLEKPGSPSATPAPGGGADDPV

For `O=C(N[C@@H]1CCN(c2cncc(C(F)(F)F)c2)C1)[C@H]1C[C@@H]1c1nc2ccc(F)cc2o1` [Example 44, (1S,2S)-2-(6-fluorobenzo[d]oxazol-2-yl)-N—((R)-1-(5-(trifluoromethyl)pyridin-3-yl)pyrrolidin-3-yl)cyclopropane-1-carboxyamide], the pIC50 is 7.85. Under `O=C(N[C@@H]1CCN(c2cncc(C(F)(F)F)c2)C1)[C@H]1C[C@@H]1c1nc2cc(F)c(F)cc2o1` [Example 45] stands 7.96; under `O=C(Cc1ccc(N2CC3(COC3)C2)cc1)N[C@@H]1CCN(c2cncc(C(F)(F)F)c2)C1` [Example 46, (R)-2-(4-(2-oxa-6-azaspiro[3.3]heptan-6-yl)phenyl)-N-(1-(5-(trifluoromethyl)pyridin-3-yl)pyrrolidin-3-yl) acetamide], 6.59; under `O=C(N[C@@H]1CCN(c2nc(C(F)(F)F)cs2)C1)[C@H]1C[C@@H]1c1nc2ccccc2o1` [Example 47, (1S,2S)-2-(benzo[d]oxazol-2-yl)-N—((R)-1-(4-(trifluoromethyl)thiazol-2-yl)pyrrolidin-3-yl)cyclopropane-1-carboxyamide], 6.46. As for `O=C(N[C@@H]1CCN(c2ccc(C(F)(F)F)nc2)C1)[C@H]1C[C@@H]1c1nc2ccc(F)cc2o1` [Example 48, (1S,2S)-2-(6-fluorobenzo[d]oxazol-2-yl)-N—((R)-1-(6-(trifluoromethyl)pyridin-3-yl)pyrrolidin-3-yl)cyclopropane-1-carboxyamide], the figure is 6.62; as for `O=C(N[C@@H]1CCN(c2cncc(C(F)(F)F)c2)C1)[C@H]1C[C@@H]1c1nc2cc(F)ccc2o1` [Example 49, (1S,2S)-2-(5-fluorobenzo[d]oxazol-2-yl)-N—((R)-1-(5-(trifluoromethyl)pyridin-3-yl)pyrrolidin-3-yl)cyclopropane-1-carboxyamide], 8.15. Take `O=C(N[C@@H]1CCN(c2cncc(C(F)(F)F)c2)C1)[C@@H]1C[C@H]1c1nc2ccccc2o1` [Example 50, (1R,2R)-2-(benzo[d]oxazol-2-yl)-N—((R)-1-(5-(trifluoromethyl)pyridin-3-yl)pyrrolidin-3-yl)cyclopropane-1-carboxyamide]: the negative-log IC50 (pIC50) was 6.17.

Consider `O=C(N[C@@H]1CCN(c2ccc(C(F)(F)F)nc2)C1)[C@H]1C[C@@H]1c1nc2cc(F)ccc2o1` [Example 51], for which the pIC50 is 6.92. In the case of `O=C(N[C@@H]1CCN(c2ccc(C(F)(F)F)nc2)C1)[C@H]1C[C@@H]1c1nc2ccccc2[nH]1` [Example 54, (1S,2S)-2-(1H-benzo[d]imidazol-2-yl)-N—((R)-1-(6-(trifluoromethyl)pyridin-3-yl)pyrrolidin-3-yl)cyclopropane-1-carboxyamide], the pIC50 is 7.06. As for `O=C(N[C@@H]1CCN(c2nc(C(F)(F)F)cs2)C1)[C@H]1C[C@@H]1c1nc2ccccc2[nH]1` [Example 64, (1S,2S)-2-(1H-benzo[d]imidazol-2-yl)-N—((R)-1-(4-(trifluoromethyl)thiazol-2-yl)pyrrolidin-3-yl)cyclopropane-1-carboxyamide], the figure is 7.43. As for `O=C(N[C@@H]1CCCN(c2ccc(C(F)(F)F)cc2)C1)[C@H]1C[C@@H]1c1nc2ccccc2[nH]1` [Example 65, (1S,2S)-2-(1H-benzo[d]imidazol-2-yl)-N—((R)-1-(4-(trifluoromethyl)phenyl)piperidin-3-yl)cyclopropane-1-carboxyamide], the figure is 5.05.

Regarding `CC(C)(C)c1csc(N2CC[C@@H](NC(=O)[C@H]3C[C@@H]3c3nc4ccccc4[nH]3)C2)n1` [Example 68, (1S,2S)-2-(1H-benzo[d]imidazol-2-yl)-N—((R)-1-(4-(tert-butyl)thiazol-2-yl)pyrrolidin-3-yl)cyclopropane-1-carboxyamide], the pIC50 is 7.12. Under `O=C(N[C@@H]1CCN(c2cnc(C(F)(F)F)nc2)C1)[C@H]1C[C@@H]1c1nc2ccccc2[nH]1` [Example 70, (1S,2S)-2-(1H-benzo[d]imidazol-2-yl)-N—((R)-1-(2-(trifluoromethyl)pyrimidin-5-yl)pyrrolidin-3-yl)cyclopropane-1-carboxyamide] stands 6.68; under `O=C(N[C@@H]1CCN(c2cncc(C(F)(F)F)c2)C1)[C@H]1C[C@@H]1c1nc2ccccc2[nH]1` [Example 71, (1S,2S)-2-(1H-benzo[d]imidazol-2-yl)-N—((R)-1-(5-(trifluoromethyl)pyridin-3-yl)pyrrolidin-3-yl)cyclopropane-1-carboxyamide], 8.10; under `O=C(N[C@@H]1CCN(c2nc3ccc(F)cc3s2)C1)[C@H]1C[C@@H]1c1nc2ccccc2[nH]1` [Example 72, (1S,2S)-2-(1H-benzo[d]imidazol-2-yl)-N—((R)-1-(6-fluorobenzo[d]thiazol-2-yl)pyrrolidin-3-yl)cyclopropane-1-carboxyamide], 6.68.

Regarding `O=C(N[C@@H]1CCN(c2ccc(C(F)(F)F)nc2)C1)[C@H]1C[C@@H]1c1nc2ccccc2n1C1CC1` [Example 73, (1S,2S)-2-(1-cyclopropyl-1H-benzo[d]imidazol-2-yl)-N—((R)-1-(6-(trifluoromethyl)pyridin-3-yl)pyrrolidin-3-yl)cyclopropane-1-carboxyamide], the pIC50 is 6.00. As to `O=C(N[C@@H]1CCN(c2ccc3cc(F)ccc3n2)C1)[C@H]1C[C@@H]1c1nc2ccccc2[nH]1` [Example 74, (1S,2S)-2-(1H-benzo[d]imidazol-2-yl)-N—((R)-1-(6-fluoroquinolin-2-yl)pyrrolidin-3-yl)cyclopropane-1-carboxyamide], the pIC50 was 6.89. Under `O=C(N[C@@H]1CCN(c2cccc(C(F)(F)F)c2)C1)[C@H]1C[C@@H]1c1nc2ccccc2n1C1CC1` [Example 75, (1S,2S)-2-(1-cyclopropyl-1H-benzo[d]imidazol-2-yl)-N—((R)-1-(3-(trifluoromethyl)phenyl)pyrrolidin-3-yl)cyclopropane-1-carboxyamide] stands 6.51; under `O=C(N[C@@H]1CCN(c2cncc(Br)c2)C1)[C@H]1C[C@@H]1c1nc2ccccc2[nH]1` [Example 76, (1S,2S)-2-(1H-benzo[d]imidazol-2-yl)-N—((R)-1-(5-bromopyridin-3-yl)pyrrolidin-3-yl)cyclopropane-1-carboxyamide], 7.17; under `O=C(Cc1ccc2ncccc2c1)N[C@@H]1CCN(c2cncc(C(F)(F)F)c2)C1` [Example 77, (R)-2-(quinolin-6-yl)-N-(1-(5-(trifluoromethyl)pyridin-3-yl)pyrrolidin-3-yl)acetamide], 6.70. Under `O=C(Cc1c[nH]c2ccccc12)N[C@@H]1CCN(c2cncc(C(F)(F)F)c2)C1` [Example 78, (R)-2-(1H-indol-3-yl)-N-(1-(5-(trifluoromethyl)pyridin-3-yl)pyrrolidin-3-yl)acetamide] stands 6.57; under `O=C(Cc1ccc2cccnc2c1)N[C@@H]1CCN(c2cncc(C(F)(F)F)c2)C1` [Example 79, (R)-2-(quinolin-7-yl)-N-(1-(5-(trifluoromethyl)pyridin-3-yl)pyrrolidin-3-yl)acetamide hydrochloride], 6.82. As for `O=C(Cc1ccc(C2CC2)cc1)N[C@@H]1CCN(c2nc(C(F)(F)F)co2)C1` [Example 80, (R)-2-(4-cyclopropylphenyl)-N-(1-(4-(trifluoromethyl)oxazol-2-yl)pyrrolidin-3-yl)acetamide], the figure is 6.14.

Consider `Cn1nc(CC(=O)N[C@@H]2CCN(c3cncc(C(F)(F)F)c3)C2)cc1C(F)(F)F` [Example 81, (R)-2-(1-methyl-5-(trifluoromethyl)-1H-pyrazol-3-yl)-N-(1-(5-(trifluoromethyl)pyridin-3-yl)pyrrolidin-3-yl) acetamide], for which the pIC50 was 6.26. Under `O=C(Cc1ccc(C(F)(F)F)nc1)N[C@@H]1CCN(c2cncc(C(F)(F)F)c2)C1` [Example 82, (R)-2-(6-(trifluoromethyl)pyridin-3-yl)-N-(1-(5-(trifluoromethyl)pyridin-3-yl)pyrrolidin-3-yl)acetamide] stands 6.12.
